Assay results as given in patent publication US20040181075A1, “Process of making chalcone derivatives” (priority 2002, published 2004).

Row | Structure (SMILES) | melting point
1 | COc1cc(OC)c(-c2cc3ccccc3s2)cc1/C=C/C(=O)c1ccc(C(=O)O)cc1 [Example 3, 4-[(2E)-3-(5-benzo[b]thien-2-yl-2,4-dimethoxyphenyl)-1-oxo-2-propenyl]-benzoic acid] | 231 to 232 °C (dec.)
2 | COc1cc(OC)c(-c2cc3ccccc3s2)cc1/C=C\C(=O)c1ccc(C(=O)O)cc1 [Example 66, 4-[(2Z)-3-(5-benzo[b]thien-2-yl-2,4-dimethoxyphenyl)-1-oxo-2-propenyl]-benzoic acid] | 176 to 178 °C
